# According to US20080014186A1, “Hla-A24 or Hla-A2 Binding Peptides of Parathyroid Hormone-Related Protein” (GREEN PEPTIDE CO., LTD., priority 2004, published 2008):
# Columns and labels:
# [1] = test system: IgG in plasma of HLA-A2^+ healthy donors and prostate cancer patients; assay: Peptide-specific IgG in plasma by ELISA (HLA-A2-binding PTHrP peptides); design: species or system human; conditions: for IgG reactive to the peptide in plasma (difference of OD): 1:100-diluted plasma
# Protocol: Peptide-specific IgG levels in the plasma were measured by ELISA, as previously reported. In brief, peptide (20 μg/well)-immobilized plates were blocked with Block Ace (Yukijirushi, Tokyo, Japan) and washed with 0.05% Tween20-PBS, after which 100 μl/well of plasma sample diluted with 0.05% Tween20-Block Ace was added to the plate. After 2 hours incubation at 37° C., the plates were washed and further incubated for 2 hours with a 1:1000-diluted rabbit anti-human IgG (γ-chain-specific) (DAKO, Glostrup, Denmark). The plates were washed, and then 100 μl of 1:100-diluted goat anti-rabbit IgG-conjugated horseradish peroxidase (EnVision, DAKO) was added to each well, and the plates were then incubated at room temperature for 40 min. After the plates were washed once, 100 μl/well of tetramethyl benzidine substrate solution (KPL, Guildford, UK) was added, and the reaction was stopped by the addition of 1 M phosphoric acid. The values are shown as optical density (OD) units/ml, and responses to the HIV peptide were subtracted. IgG reactive to a corresponding PTHrP peptide was judged to be positive when the difference of the OD in 1:100-diluted plasma exceeded 0.05. The results that IgG reactive to either the PTHrP102-111 or the […] peptide was detected in 8 of 10 healthy donors and in 7 of 10 prostate cancers are shown in Table 2 hereinafter.
# In a similar way to Example 3, it was examined whether IgGs reactive to peptides of PTHrP 42-51 and PTHrP 59-67 could be detected in the plasma of 10 healthy donors and 10 cancer patients. The cut-off value at 1:100-diluted plasma was ODO.054.
# [2] = test system: PBMCs of HLA-A2^+ healthy donors and prostate cancer patients; assay: Assay for peptide-specific CTLs in PBMCs (IFN-γ ELISA, peptide-pulsed T2 cells); assay type: cell-based, human; conditions: for INF-γ production: T2 cells
sequence,measurement,setting,value
LLHDKGKSI [PTHrP 43-51],IgG reactive to the peptide in plasma (difference of OD),[1]; HLA-A2^+ healthy donor #1,— (IgG reactive to a corresponding peptide was judged to be positive when a difference of OD in a 1:100-diluted plasma was more than 0.054.)
same,IgG reactive to the peptide in plasma (difference of OD),[1]; HLA-A2^+ healthy donor #2,0.102 OD
same,IgG reactive to the peptide in plasma (difference of OD),[1]; HLA-A2^+ healthy donor #3,— (IgG reactive to a corresponding peptide was judged to be positive when a difference of OD in a 1:100-diluted plasma was more than 0.054.)
same,IgG reactive to the peptide in plasma (difference of OD),[1]; HLA-A2^+ healthy donor #4,0.155 OD
same,IgG reactive to the peptide in plasma (difference of OD),[1]; HLA-A2^+ healthy donor #5,— (IgG reactive to a corresponding peptide was judged to be positive when a difference of OD in a 1:100-diluted plasma was more than 0.054.)
same,IgG reactive to the peptide in plasma (difference of OD),[1]; HLA-A2^+ healthy donor #6,— (IgG reactive to a corresponding peptide was judged to be positive when a difference of OD in a 1:100-diluted plasma was more than 0.054.)
same,IgG reactive to the peptide in plasma (difference of OD),[1]; HLA-A2^+ healthy donor #7,— (IgG reactive to a corresponding peptide was judged to be positive when a difference of OD in a 1:100-diluted plasma was more than 0.054.)
same,IgG reactive to the peptide in plasma (difference of OD),[1]; HLA-A2^+ healthy donor #8,0.121 OD
same,IgG reactive to the peptide in plasma (difference of OD),[1]; HLA-A2^+ healthy donor #9,— (IgG reactive to a corresponding peptide was judged to be positive when a difference of OD in a 1:100-diluted plasma was more than 0.054.)
same,IgG reactive to the peptide in plasma (difference of OD),[1]; HLA-A2^+ healthy donor #10,— (IgG reactive to a corresponding peptide was judged to be positive when a difference of OD in a 1:100-diluted plasma was more than 0.054.)
same,Total (IgG-positive donors / donors tested),[1]; HLA-A2^+ healthy donors,3/10
same,IgG reactive to the peptide in plasma (difference of OD),[1]; HLA-A2^+ prostate cancer patient #1,— (IgG reactive to a corresponding peptide was judged to be positive when a difference of OD in a 1:100-diluted plasma was more than 0.054.)
same,IgG reactive to the peptide in plasma (difference of OD),[1]; HLA-A2^+ prostate cancer patient #2,0.078 OD
same,IgG reactive to the peptide in plasma (difference of OD),[1]; HLA-A2^+ prostate cancer patient #3,— (IgG reactive to a corresponding peptide was judged to be positive when a difference of OD in a 1:100-diluted plasma was more than 0.054.)
same,IgG reactive to the peptide in plasma (difference of OD),[1]; HLA-A2^+ prostate cancer patient #4,— (IgG reactive to a corresponding peptide was judged to be positive when a difference of OD in a 1:100-diluted plasma was more than 0.054.)
same,IgG reactive to the peptide in plasma (difference of OD),[1]; HLA-A2^+ prostate cancer patient #5,— (IgG reactive to a corresponding peptide was judged to be positive when a difference of OD in a 1:100-diluted plasma was more than 0.054.)
same,IgG reactive to the peptide in plasma (difference of OD),[1]; HLA-A2^+ prostate cancer patient #6,0.0895 OD
same,IgG reactive to the peptide in plasma (difference of OD),[1]; HLA-A2^+ prostate cancer patient #7,0.0795 OD
same,IgG reactive to the peptide in plasma (difference of OD),[1]; HLA-A2^+ prostate cancer patient #8,— (IgG reactive to a corresponding peptide was judged to be positive when a difference of OD in a 1:100-diluted plasma was more than 0.054.)
same,IgG reactive to the peptide in plasma (difference of OD),[1]; HLA-A2^+ prostate cancer patient #9,— (IgG reactive to a corresponding peptide was judged to be positive when a difference of OD in a 1:100-diluted plasma was more than 0.054.)
same,IgG reactive to the peptide in plasma (difference of OD),[1]; HLA-A2^+ prostate cancer patient #10,— (IgG reactive to a corresponding peptide was judged to be positive when a difference of OD in a 1:100-diluted plasma was more than 0.054.)
same,Total (IgG-positive patients / patients tested),[1]; HLA-A2^+ prostate cancer patients,3/10
same,INF-γ production,[2]; HLA-A2^+ healthy donor #1 (A0201),17 pg/mL
same,INF-γ production,[2]; HLA-A2^+ healthy donor #2 (A0201),21 pg/mL
same,INF-γ production,[2]; HLA-A2^+ healthy donor #3 (A0201),23 pg/mL
same,INF-γ production,[2]; HLA-A2^+ healthy donor #4 (A0201),27 pg/mL
same,INF-γ production,[2]; HLA-A2^+ healthy donor #5 (A0206),0 pg/mL
same,INF-γ production,[2]; HLA-A2^+ healthy donor #6 (A0206),0 pg/mL
same,INF-γ production,[2]; HLA-A2^+ healthy donor #7 (A0206),0 pg/mL
same,INF-γ production,[2]; HLA-A2^+ healthy donor #8 (A0206),0 pg/mL
same,INF-γ production,[2]; HLA-A2^+ healthy donor #9 (A0206),0 pg/mL
same,INF-γ production,[2]; HLA-A2^+ healthy donor #10 (A0207),0 pg/mL
same,Total (donors with significant peptide-specific IFN-γ production / donors tested),"[2]; HLA-A2^+ healthy donors, p < 0.05",0/10
same,INF-γ production,[2]; HLA-A2^+ prostate cancer patient #1 (A0206),40 pg/mL
same,INF-γ production,[2]; HLA-A2^+ prostate cancer patient #2 (A0210),56 pg/mL
same,INF-γ production,[2]; HLA-A2^+ prostate cancer patient #3 (A0210),185 pg/mL
same,INF-γ production,[2]; HLA-A2^+ prostate cancer patient #4 (A0206),0 pg/mL
same,INF-γ production,[2]; HLA-A2^+ prostate cancer patient #5 (A0206),39 pg/mL
same,INF-γ production,[2]; HLA-A2^+ prostate cancer patient #6 (A0207),51 pg/mL
same,INF-γ production,[2]; HLA-A2^+ prostate cancer patient #7 (A0206),0 pg/mL
same,INF-γ production,[2]; HLA-A2^+ prostate cancer patient #8 (A0206),23 pg/mL
same,INF-γ production,[2]; HLA-A2^+ prostate cancer patient #9 (A0201),14 pg/mL
same,INF-γ production,[2]; HLA-A2^+ prostate cancer patient #10 (A0201),0 pg/mL
same,Total (patients with significant peptide-specific IFN-γ production / patients tested),"[2]; HLA-A2^+ prostate cancer patients, p < 0.05",1/10
